Experimental data published in paper PMC8177795 (Cancer Science, 2021).
Several values for one entry are separate records, joined by “and”; a condition that tells them apart may be missing. Identical values can stand only once.

Assays:
[1] = Plasma pharmacokinetics of acalabrutinib and ACP‐5862; format: in vivo, Japanese patients; details: for M/P ratio (metabolite to parent), AUC / M/P ratio (metabolite to parent), AUC0–12 / M/P ratio (metabolite to parent), AUC0–t / M/P ratio (metabolite to parent), Cmax: part 1
BTK = details: no reference given; cited from earlier work
[2] = multiple dose 100 mg BID, day 8, part 1
[3] = multiple dose 100 mg BID, day 8, part 1, fasting
[4] = single dose 100 mg acalabrutinib, part 1, fasting

Structure (SMILES): CC#CC(=O)NCCCC(=O)c1nc(-c2ccc(C(=O)Nc3ccccn3)cc2)c2c(N)nccn12 [ACP‐5862]
- RAC (extent of accumulation on multiple dosing), Amean ± SD [1, 2]: 2.72 and 2.722 ± 2.826
- TC (time dependency of pharmacokinetics), Amean ± SD [1, 2]: 1.444 ± 0.8136
- AUC0–12, Gmean (CV) [1, 3]: 1987 (8%) ng∙h/mL
- AUC0–t, Gmean (CV) [1, 3]: 1985 (8%) ng∙h/mL
- AUC (zero to infinity), Gmean (CV) [1, 3]: 2099 (7%) ng∙h/mL
- Cmax, Gmean (CV) [1, 3]: 629.7 (27%) ng/mL
- t1/2, Amean ± SD [1, 3]: 3.216 ± 0.3938 h
- tmax, median (min, max) [1, 3]: 0.940 (0.750, 1.080) h
- M/P ratio (metabolite to parent), AUC ([1]; multiple dose): 1.73
- M/P ratio (metabolite to parent), AUC0–12 ([1]; multiple dose): 1.64
- M/P ratio (metabolite to parent), AUC0–t ([1]; multiple dose): 1.65
- M/P ratio (metabolite to parent), Cmax ([1]; multiple dose): 0.56
- AUC0–12, Gmean (CV) [1, 4]: 1092 (124%) ng∙h/mL
- AUC0–t, Gmean (CV) [1, 4]: 1306 (94%) ng∙h/mL
- AUC (zero to infinity), Gmean (CV) [1, 4]: 1557 (60%) ng∙h/mL
- Cmax, Gmean (CV) [1, 4]: 316.5 (260%) ng/mL
- t1/2, Amean ± SD [1, 4]: 10.18 ± 7.986 h
- tmax, median (min, max) [1, 4]: 0.965 (0.900, 4.000) h
- M/P ratio (metabolite to parent), AUC ([1]; single dose): 1.40
- M/P ratio (metabolite to parent), AUC0–12 ([1]; single dose): 1.23
- M/P ratio (metabolite to parent), AUC0–t ([1]; single dose): 1.36
- M/P ratio (metabolite to parent), Cmax ([1]; single dose): 0.53
- Potency for BTK inactivation relative to the parent agent acalabrutinib (BTK): approximately 50%
